Assay [1] can be described thus: Detection of hydrogen peroxide using coelenterazine borate with NanoLuc luciferase. The assay is classed as biochemical. Conditions: 12.5 uM compound, 40 ng/ml NanoLuc luciferase, 200 mM Tris-Cl pH 8.5 or pH 9.0, FIG. 3. The procedure:
PBI 4759 (10 mM; final concentration 12.5 uM), various concentrations of hydrogen peroxide and 40 ng/ml NanoLuc™ luciferase enzyme (Promega Corporation) were added to wells of a 96-well assay plate containing 200 mM Tris-Cl either at pH 8.5 or pH 9.0. Luminescence was detected on a GloMax® luminometer.

Assay [2] can be described thus: Light generation from compounds following incubation with hydrogen peroxide in different pH solutions (D-cysteine conversion, LDR). The following applies: for Signal to Background Ratios: signal with peroxide to background no peroxide. In kind it is biochemical. On the procedure: In this experiment, various compounds were tested for their ability to detect hydrogen peroxide in different pH solutions. Several compounds are shown to give much better signal strength and signal to background ratios than PBI 3048 (Example 23). 4 mg/ml solutions of compounds PBI 4480, 4481, 4452, 4470, 4472, 3048 (FIGS. 1 and 2) were made by dissolving them in DMSO (Fluka 41641). 30 μl of the compound solutions was diluted to 1.5 ml with Nanopure water, and 50 μl aliquots added as follows into a white, 96-well luminometer plate: PBI 4481, row A1-12; PBI 4480, row B1-12; PBI 4452, row C1-12; PBI 3048, row D1-12; PBI 4472, row E1-12 and PBI 4470, row F1-12.
25 μl of 200 mM TRIS buffer, pH 7.6 was added to wells A1-F4, 25 μl of 200 mM TRIS buffer, pH 8.8 was added to wells A5-F8, and 25 μl of 200 mM Tris buffer, pH 10.4 was added […].
30% hydrogen peroxide (Sigma H 1009-5 ml) was diluted to 40 μM in Nanopure water, and 25 μl added to columns 3, 4, 7, 8, 11 and 12 of the plate. 25 μl water was added to columns 1, 2, 5, 6, 9, and 10 of the plate, and the plate incubated at room temperature for 60 minutes.
A conversion solution was made by mixing 100 μl of 100 mM D-cysteine, 1 ml Tris Buffer pH 8.8 and 8.9 ml nanopure water. After mixing, 80 μl of the solution was added to wells A1-F12 of a new luminometer plate.
After incubation, 20 μl of sample from wells A1-F12 of the first plate was transferred to the same well in the new luminometer plate. The new plate was incubated at room temperature for 5 minutes, 100 μl of LDR (Example 23) was added to wells A1-F12, and bioluminescence detected on a Glo Max® luminometer (Promega).
The RLUs for the duplicate wells were averaged. The averages for the wells containing hydrogen peroxide were compared to the wells without hydrogen peroxide at the same pH (Table 2). BZT is used to designate benzothiazole derivatives of the compounds.
The Signal to Background (S/B) ratio is used to compare assay reagents with very difference signal strengths. An assay with a higher S/B ratio is often considered a better assay than one with a smaller S/B ratio (with all other factors being relatively equal).

Setting [3] is: pH 7.6 TRIS buffer, No H2O2, 60 minutes.
Where [4] appears, read: pH 7.6 TRIS buffer, With H2O2 (25 μl of 40 μM added), 60 minutes.
The mark [5] stands for this setting: pH 8.8 TRIS buffer, No H2O2, 60 minutes.
The mark [6] stands for this setting: pH 8.8 TRIS buffer, With H2O2 (25 μl of 40 μM added), 60 minutes.
Setting [7] is: pH 10.4 Tris buffer, No H2O2, 60 minutes.
Where [8] appears, read: pH 10.4 Tris buffer, With H2O2 (25 μl of 40 μM added), 60 minutes.

On to `CC1(C)OB(c2ccc(COc3c(Cc4ccco4)nc4c(Cc5ccccc5)nc(-c5ccccc5)cn34)cc2)OC1(C)C` [PBI 4759, 8-benzyl-2-(furan-2-ylmethyl)-6-phenyl-3-((4-(4,4,5,5-tetramethyl-1,3,2-dioxaborolan-2-yl)benzyl)oxy)imidazo[1,2-a]pyrazine], for which the “detection of hydrogen peroxide by luminescence (in words)” value in assay [1] is reported as “allows sensitive detection of hydrogen peroxide”.
As for `N#Cc1nc2ccc(OCc3ccc(B(O)O)c(Cl)c3)cc2s1` [PBI 4470, (2-chloro-4-(((2-cyanobenzo[d]thiazol-6-yl)oxy)methyl)phenyl)boronic acid], the “Signal to Background Ratios” value amounted to 1.4 in assay [2] (pH 7.6), 3.3 in assay [2] (pH 8.8) and 16.3 in assay [2] (pH 10.4). The “averaged RLUs (bioluminescence)” value is 492,941 RLU in assay [2] (setting [3]); 701,300 RLU in assay [2] (setting [4]); 468,729 RLU in assay [2] (setting [5]); 1,525,058 RLU in assay [2] (setting [6]); 819,416 RLU in assay [2] (setting [7]); 13,391,102 RLU in assay [2] (setting [8]).
On to `N#Cc1nc2ccc(OCc3ccc(B(O)O)cc3)cc2s1` [PBI 4452, (4-(((2-cyanobenzo[d]thiazol-6-yl)oxy)methyl)phenyl)boronic acid], for which the “Signal to Background Ratios” value in assay [2] (pH 7.6) is listed as 1.9; in assay [2] (pH 8.8), 4.4; in assay [2] (pH 10.4), 15.8. The “averaged RLUs (bioluminescence)” value is given as 607,036 RLU in assay [2] (setting [3]); 1,182,338 RLU in assay [2] (setting [4]); 632,327 RLU in assay [2] (setting [5]); 2,790,924 RLU in assay [2] (setting [6]); 921,935 RLU in assay [2] (setting [7]); 14,577,312 RLU in assay [2] (setting [8]).
